Measurements from ChEMBL document CHEMBL4270599, “Synthesis of a 3'-C-ethynyl-β-d-ribofuranose purine nucleoside library: Discovery of C7-deazapurine analogs as potent antiproliferative nucleosides” (Eur J Med Chem, 2018).

Tests used:
Format in all cases: functional
HOP-92 = assay: Growth inhibition of human HOP92 cells assessed as cell growth at 10^-7 M incubated for 48 hrs by sulforhodamine B assay relative to control; settings: HOP-92, 48 h, read-out: Activity
KM12 = assay: Growth inhibition of human KM12 cells assessed as cell growth at 10^-4 M incubated for 48 hrs by sulforhodamine B assay relative to control; settings: KM12, 48 h, read-out: Activity
MOLT-4 [1] = assay: Cytotoxicity against human MOLT4 cells after 48 hrs by SRB assay; settings: MOLT-4, 48 h; for GI50: read-out: GI50; for CC50: read-out: LC50 (the source's name); for TGI: read-out: TGI
SF-268 = assay: Growth inhibition of human SF268 cells assessed as cell growth at 10^-7 M incubated for 48 hrs by sulforhodamine B assay relative to control; settings: SF-268, 48 h, read-out: Activity
IGROV-1 [2] = assay: Cytotoxicity against human IGROV1 cells after 48 hrs by SRB assay; settings: IGROV-1, 48 h; for GI50: read-out: GI50
RPMI-8226 = assay: Growth inhibition of human RPMI8226 cells assessed as cell growth at 10^-8 M incubated for 48 hrs by sulforhodamine B assay relative to control; settings: RPMI-8226, 48 h, read-out: Activity
K562 = assay: Growth inhibition of human K562 cells assessed as cell growth at 10^-5 M incubated for 48 hrs by sulforhodamine B assay relative to control; settings: K562, 48 h, read-out: Activity
U-251 [3] = assay: Growth inhibition of human U251 cells assessed as cell growth at 10^-4 M incubated for 48 hrs by sulforhodamine B assay relative to control; settings: U-251, 48 h, read-out: Activity
OVCAR-8 = assay: Growth inhibition of human OVCAR8 cells assessed as cell growth at 10^-7 M incubated for 48 hrs by sulforhodamine B assay relative to control; settings: OVCAR-8, 48 h, read-out: Activity
Hs-578T [4] = assay: Growth inhibition of human Hs 578T cells assessed as cell growth at 10^-8 M incubated for 48 hrs by sulforhodamine B assay relative to control; settings: read-out: Activity
EKVX = assay: Cytotoxicity against human EKVX cells after 48 hrs by SRB assay; settings: for TGI: read-out: TGI
SK-MEL-28 = assay: Growth inhibition of human SK-MEL-28 cells assessed as cell growth at 10^-7 M incubated for 48 hrs by sulforhodamine B assay relative to control; settings: SK-MEL-28, 48 h, read-out: Activity
LOX IMVI = assay: Cytotoxicity against human LOXIMVI cells after 48 hrs by SRB assay; settings: for GI50: read-out: GI50; for CC50: read-out: LC50 (the source's name); for TGI: read-out: TGI
NCI-H322M [5] = assay: Growth inhibition of human NCI-H322M cells assessed as cell growth at 10^-8 M incubated for 48 hrs by sulforhodamine B assay relative to control; settings: read-out: Activity
IGROV-1 [6] = assay: Growth inhibition of human IGROV1 cells assessed as cell growth at 10^-7 M incubated for 48 hrs by sulforhodamine B assay relative to control; settings: IGROV-1, 48 h, read-out: Activity
DU-145 = assay: Cytotoxicity against human DU145 cells after 48 hrs by SRB assay; settings: DU-145, 48 h; for GI50: read-out: GI50; for CC50: read-out: pLC50 (the source's name) (converted)
A498 = assay: Growth inhibition of human A498 cells assessed as cell growth at 10^-6 M incubated for 48 hrs by sulforhodamine B assay relative to control; settings: A498, 48 h, read-out: Activity
NCI/ADR-RES = assay: Growth inhibition of human NCI/ADR-RES cells assessed as cell growth at 10^-7 M incubated for 48 hrs by sulforhodamine B assay relative to control; settings: read-out: Activity
U-251 [7] = assay: Cytotoxicity against human U251 cells after 48 hrs by SRB assay; settings: U-251, 48 h; for CC50: read-out: LC50 (the source's name)
UACC-62 = assay: Growth inhibition of human UACC62 cells assessed as cell growth at 10^-8 M incubated for 48 hrs by sulforhodamine B assay relative to control; settings: UACC-62, 48 h, read-out: Activity
OVCAR-5 = assay: Growth inhibition of human OVCAR5 cells assessed as cell growth at 10^-6 M incubated for 48 hrs by sulforhodamine B assay relative to control; settings: OVCAR-5, 48 h, read-out: Activity
HCT-15 = assay: Growth inhibition of human HCT15 cells assessed as cell growth at 10^-7 M incubated for 48 hrs by sulforhodamine B assay relative to control; settings: HCT-15, 48 h, read-out: Activity
MOLT-4 [8] = assay: Growth inhibition of human MOLT4 cells assessed as cell growth at 10^-6 M incubated for 48 hrs by sulforhodamine B assay relative to control; settings: MOLT-4, 48 h, read-out: Activity
NCI-H522 = assay: Growth inhibition of human NCI-H522 cells assessed as cell growth at 10^-7 M incubated for 48 hrs by sulforhodamine B assay relative to control; settings: NCI-H522, 48 h, read-out: Activity
Hs-578T [9] = assay: Growth inhibition of human Hs 578T cells assessed as cell growth at 10^-6 M incubated for 48 hrs by sulforhodamine B assay relative to control; settings: read-out: Activity
NCI-H460 = assay: Growth inhibition of human NCI-H460 cells assessed as cell growth at 10^-8 M incubated for 48 hrs by sulforhodamine B assay relative to control; settings: NCI-H460, 48 h, read-out: Activity
COLO 205 = assay: Growth inhibition of human COLO205 cells assessed as cell growth at 10^-8 M incubated for 48 hrs by sulforhodamine B assay relative to control; settings: COLO 205, 48 h, read-out: Activity
Malme-3M = assay: Growth inhibition of human MALME-3M cells assessed as cell growth at 10^-6 M incubated for 48 hrs by sulforhodamine B assay relative to control; settings: read-out: Activity
NCI-H322M [10] = assay: Growth inhibition of human NCI-H322M cells assessed as cell growth at 10^-5 M incubated for 48 hrs by sulforhodamine B assay relative to control; settings: read-out: Activity
[11] = read-out: LC50 (the source's name)
[12] = read-out: pLC50 (the source's name) (converted)

Row | SMILES | growth at 0.1 µM (HOP-92) | growth at 100 µM (KM12) | GI50 (MOLT-4 [1]) | CC50 (MOLT-4 [1]) | TGI (MOLT-4 [1]) | growth at 0.1 µM (SF-268) | GI50 (IGROV-1 [2]) | TGI (IGROV-1 [2]; read-out: TGI) | TGI (IGROV-1 [2]; read-out: pTGI (converted)) | growth at 0.01 µM (RPMI-8226) | growth at 10 µM (K562) | growth at 100 µM (U-251 [3]) | growth at 0.1 µM (OVCAR-8) | growth at 0.01 µM (Hs-578T [4]) | GI50 (EKVX; read-out: GI50) | TGI (EKVX) | growth at 0.1 µM (SK-MEL-28) | GI50 (LOX IMVI) | CC50 (LOX IMVI) | TGI (LOX IMVI) | also measured
1 | C#C[C@@]1(O)[C@@H](CO)O[C@@H](n2cc(Cl)c3c(N)ncnc32)[C@@H]1O | 90% | 2 to 6% | 161 to 181 nM | > 100 µM | 6.97 to 100 µM | 77 to 80% | 123 to 145 nM | 475 nM | 479 nM | 99 to 100% | 5 to 7% | 1% | 35 to 39% | 95 to 96% | 260 to 262 nM | 2410 to 2460 nM | 87 to 91% | 36 to 81.4 nM | 756 to 871 nM | 226 to 284 nM | CC50 (IGROV-1 [2]; [11]): > 100 µM; CC50 (EKVX; [11]): > 100 µM; GI50 (EKVX; read-out: pGI50 (converted)): 263 nM; growth at 0.01 µM (NCI-H322M [5]): 93 to 100%; growth at 0.1 µM (IGROV-1 [6]): 57 to 65%; GI50 (DU-145): 109 to 159 nM; TGI (DU-145; read-out: TGI): 27 to 100 µM; CC50 (DU-145): > 100 µM; growth at 1 µM (A498): -63%; growth at 0.1 µM (NCI/ADR-RES): 37 to 40%; CC50 (U-251 [7]): > 100 µM; growth at 0.01 µM (UACC-62): 94 to 97%; growth at 1 µM (OVCAR-5): 23 to 38%; growth at 0.1 µM (HCT-15): 57 to 61%; growth at 1 µM (MOLT-4 [8]): 2%; growth at 0.1 µM (NCI-H522): 47 to 62%; growth at 1 µM (Hs-578T [9]): 25 to 77%; growth at 0.01 µM (NCI-H460): 45 to 96%; growth at 0.01 µM (COLO 205): 93 to 96%
2 | C#C[C@@]1(O)[C@@H](CO)O[C@@H](n2cc(Br)c3c(N)ncnc32)[C@@H]1O | 63 to 78% | 2 to 10% | 70.8 to 178 nM | > 100 µM | 0.778 to 100 µM | 78 to 87% | 27.8 to 69.9 nM | 485 nM | 490 nM | 95 to 101% | 6 to 7% | 4% | 28 to 43% | 90 to 96% | 150 to 261 nM | 1250 to 5750 nM | 77 to 94% | 29 to 105 nM | 720 to 2130 nM | 176 to 351 nM | growth at 1 µM (Malme-3M): 43 to 47%; CC50 (IGROV-1 [2]; [12]): > 100 µM; growth at 10 µM (NCI-H322M [10]): -12%; CC50 (EKVX; [12]): > 100 µM; growth at 0.01 µM (NCI-H322M [5]): 91 to 95%; growth at 0.1 µM (IGROV-1 [6]): 11 to 43%; GI50 (DU-145): 62.8 to 151 nM; TGI (DU-145; read-out: TGI): > 100 µM; CC50 (DU-145): > 100 µM; TGI (DU-145; read-out: pTGI (converted)): > 100 µM; growth at 0.1 µM (NCI/ADR-RES): 34 to 41%; GI50 (U-251 [7]; read-out: GI50): 13.2 to 30.9 nM; CC50 (U-251 [7]): > 100 µM; growth at 0.01 µM (UACC-62): 93 to 101%; growth at 1 µM (OVCAR-5): 33 to 56%; growth at 0.1 µM (HCT-15): 45 to 63%; growth at 0.1 µM (NCI-H522): 38 to 67%; growth at 1 µM (Hs-578T [9]): 6 to 57%; growth at 0.01 µM (NCI-H460): 63 to 104%; growth at 0.01 µM (COLO 205): 95 to 97%
